Reference: US20100086518A1, “TREATMENT OF MELANOMA” (NOVARTIS AG, priority 2007, published 2010)
Read-outs that look alike come from different tables or passages of the source.

How the values were obtained:
[1] = test system: melanoma tumor cells MEXF 672/3; experiment: cells; settings: Homo sapiens
[2] = test system: bFGF-driven neovascularization; experiment: In vivo FGF-mediated matrigel angiogenesis assay; settings: daily for 8 days
[3] = test system: melanoma tumor cells MEXF 1341/3; experiment: cells; settings: Homo sapiens
[4] = test system: melanoma tumor cells MEXF 462/6; experiment: cells; settings: Homo sapiens
[5] = test system: melanoma tumor cells MEXF 276/7; experiment: cells; settings: Homo sapiens
[6] = test system: BRaf WT CHL-1 melanoma tumors
[7] = test system: melanoma tumor cells MEXF 989/7; experiment: cells; settings: Homo sapiens
[8] = test system: other kinases in the PI3K/Akt and MAPK(K) pathways; settings: read-out: IC50 other kinases in the PI3K/Akt and MAPK(K) pathways; negligible activity
[9] = test system: melanoma tumor cells MEXF 1765/3; experiment: cells; settings: Homo sapiens
[10] = test system: melanoma tumor cells MEXF 514/12; experiment: cells; settings: Homo sapiens
[11] = test system: melanoma-inhibitory activity (MIA) protein; experiment: Plasma MIA levels in the CHL-1 study; format: in vivo, Nu/Nu mice; settings: 30 mg/kg and 80 mg/kg groups
Procedure: MIA ELISA Assay: Equal numbers of human melanoma and colorectal carcinoma cells (˜250,000 cells for each cell line) were seeded onto tissue culture plates and the culture medium for each cell line was collected 48 hr later. Levels of MIA in culture media or plasma were measured by a commercial single-step ELISA kit according to the manufacturer's protocol (Roche Diagnostics Corporation, Indianapolis, Ind.). MIA concentrations in test samples were calculated using a standard curve ranging from 3-37 ng/mL. When the MIA concentration exceeded the highest standard concentration, the samples were diluted 1:5 and assayed again to have the results fall within the linear range of the standard curve. Data were evaluated using the Student t-test (two-tailed distribution, two-sample unequal variance), using P≦0.05 as the level of significance.
In the CHL-1 study, plasma levels of the melanoma marker melanoma-inhibitory activity (MIA) protein secreted by melanoma cells were also measured.

[12] = test system: human melanoma CHL-1 (wild type B-Raf) xenograft; format: in vivo; settings: day 25
Procedure: Animals. […] . Mice were implanted with subcutaneous ID chips upon arrival and then underwent at least 7 days of acclimatization prior to the study start. All animal studies were conducted in a facility accredited by the Association for Assessment and Accreditation of Laboratory Animal Care International and in accordance with all guidelines of the Institutional Animal Care and Use Committee and the Guide for The Care and Use of Laboratory Animals (National Research Council).
Cell culture for in vivo efficacy studies. […] The human melanoma cell line CHL-1 was cultured for 6 passages in DMEM media with low glutamine+10% FBS at 37° C. in a humidified atmosphere with 5% CO2.
The day of tumor cell implantation, tumor cells were harvested and resuspended in HBSS (A375 cells) or 50% HBSS+plus 50% Matrigel (CHL-1 cells; Becton Dickenson and Company, Franklin Lakes, N.J.) at 2.5×10^7 cells/mL. Cells were inoculated subcutaneously in the right flank at 5×10^6 cells/200 uL/mouse.
. The group sizes were 9 animals per group (A375 study) or 10 animals per group (CHL-1 study). […] . […] . […] Comparisons of the mean tumor volume in the treatment vs. the vehicle group were evaluated using a Student's two tailed t-test (Excel software).

[13] = target: T1, VEGFR2/Flk1 (UniProt P35968); experiment: VEGFR2 kinase assay (purified enzyme); format: biochemical; settings: read-out: IC50 VEGFR flk1
T1 construct: other: purified enzyme

[14] = Cmpd 1 30 mg/kg qd, carboplatin 50 mg/kg + paclitaxel 25 mg/kg 1x/wk

In the case of `CN1CCN(c2ccc3nc(-c4c(N)c5c(F)cccc5[nH]c4=O)[nH]c3c2)CC1` [Compound 1, 4-amino-5-fluoro-3-[6-(4-methylpiperazin-1-yl)-1H-benzimidazol-2-yl]-1H-quinolin-2-one], the IC50 ([1]; read-out: IC50 clonogenic, MEXF 672/3) is reported as 1670 nM, the EC50 ([1]; read-out: relative EC50 soft agar clonogenic, 672/3) is reported as 1670 nM and the “hemoglobin level in Matrigel plugs versus unsupplemented Matrigel” value ([2]; all doses >10 mg/kg) is reported as “less than the basal hemoglobin level”. For the same compound, the “IC50 of inhibition of bFGF-driven neovascularization” value ([2]; oral, 3-100 mg/kg, hemoglobin in Matrigel plugs) was 3 mg/kg, the IC50 ([3]; read-out: IC50 clonogenic, MEXF 1341/3) was 2240 nM and the EC50 ([3]; read-out: relative EC50 soft agar clonogenic, 1341/3) was 2240 nM. It also gave an IC50 ([4]; read-out: IC50 clonogenic, MEXF 462/6) of 700 nM, an EC50 ([4]; read-out: relative EC50 soft agar clonogenic, 462/6) of 700 nM and an IC50 ([5]; read-out: IC50 clonogenic, MEXF 276/7) of 1140 nM. For the same compound, the EC50 ([5]; read-out: relative EC50 soft agar clonogenic, 276/7) was 1140 nM, the “Clinical Observations” value ([6]; BAR = bright, alert, responsive, BWL = body weight loss) was “BAR” and the “% Mean change in BW of initial” value [6, 14] was 4.3%. The “Max % TGI; day 14” value [6, 14] was 52.51%, the “Mean of Tv on day 14” value ([6]; Cmpd 1 30 mg/kg qd, carboplatin 50 mg/kg + paclitaxel 25 mg/kg 1x/wk, tumor volume in mm^3) was 884 and the “T/C Observed (O)” value ([6]; day 14) was 0.56. The IC50 ([7]; MEXF 989, read-out: IC50 clonogenic, MEXF 989/7) was 2540 nM, the EC50 ([7]; MEXF 989, read-out: relative EC50 soft agar clonogenic, 989/7) was 2540 nM and the IC50 [8] was > 10 µM. For the same compound, the IC50 ([9]; read-out: IC50 clonogenic, MEXF 1765/3) was 2580 nM, the EC50 ([9]; read-out: relative EC50 soft agar clonogenic, 1765/3) was 2580 nM and the IC50 ([10]; MEXF514, read-out: IC50 clonogenic, MEXF 514/12) was 1050 nM. For the same compound, the EC50 ([10]; MEXF514, read-out: relative EC50 soft agar clonogenic, 514/12) was 1050 nM, the “plasma MIA levels” value ([11]; day 8, vehicle […]) was “undetectable” and the “plasma MIA levels” value ([11]; day 22) was “undetectable”. For the same compound, the “tumor growth inhibition (TGI)” value ([12]; 10 mpk p.o. daily) was 64%, the “tumor growth inhibition (TGI)” value ([12]; 30 mpk p.o. daily) was 73% and the “tumor growth inhibition (TGI)” value ([12]; 60 mpk p.o. daily) was 89%. For the same compound, the “tumor growth inhibition (TGI)” value ([12]; 80 mpk p.o. daily) was 87%.

With `Nc1c(-c2nc3ccc(N4CCNCC4)cc3[nH]2)c(=O)[nH]c2cccc(F)c12` [Compound 3, 4-Amino-5-fluoro-3-(6-piperazin-1-yl-1H-benzimidazol-2-yl)quinolin-2(1H)-one] the IC50 [13] was […].
